Results as given in patent US4812465A, “Triazole derivatives for use as antimycotic agents” (CL Pharma Aktiengesellschaft, priority 1986, dated 1989).
Converted amounts (≈) assume the structure as drawn.

Key:
Assay in all cases: In vitro determination of minimum inhibitory concentration (MIC), serial dilution
Format in all cases: cell-based
[1] = tested on: Absidia ramosa; conditions: pH 6.0, 22° C., 14 days; for MIC: Lichtheimia ramosa, 336 h, pH 6, Absidia ramosa
Experimental: (§1) The antimycotic activities of the compounds were measured by in vitro determination of the minimum inhibitory concentration (MIC) for yeasts, molds and dermatophytes.
(§2) 6 dermatophytes, 2 yeasts and 4 molds were used for testing with fungi, as follows:
(§3) The minimum inhibitory concentration (MIC) was determined in serial dilution tests in test tubes. The volume of the liquid nutrient medium in each test tube was 4.5 ml.
(§4) The substances were dissolved in DMSO and diluted with sterile distilled water to 10 concentrations (100, 50, 25, 12.5, 6.25, 3.12, 1.56, 0.78, 0.39 and 0.19 μg/ml). 0.5 ml of each of these dilution steps was added to liquid nutrient medium. Thus, a constant concentration of solvent in all the nutrient media was ensured, irrespective of the active compound concentration.
(§5) A comparison solution which contained only the solvent in appropriate concentration was included when carrying out each of the tests.
(§6) The individual strains were maintained on Sabouraud/beerwort agar slants and, before they were used in a test, they underwent a passage on a modified Sabouraud liquid nutrient medium. The strains were then harvested, washed and converted into a suspension of McFaerland 3 in the case of yeasts and molds and of McFaerland 4-5 in the case of dermatophytes.
(§7) The amount of material inoculated (inoculum) was 100 μl/test tube (inoculated densities: yeasts about 10^3 /ml, molds about 10^4 /ml, dermatophytes about 10^4 /ml). The pH of the liquid nutrient medium was 6.0. After inoculation had taken place the fungi were incubated at 22° C. for 14 days.
(§8) The MIC was then determined. The concentration step at which growth was no longer visible on macroscopic inspection was used for the determination of the MIC. The comparison substance used was 1-(2-(2,4-dichlorophenyl)-2-(2,4-dichlorophenylmethoxy)ethyl)-1H-imidazole(compound A).

[2] = tested on: Aspergillus fumigatus; conditions: 20160 min, pH 6
Experimental: as §1, §2, §3, §4, §5, §6, §7, §8

[3] = tested on: Candida albicans; conditions: 336 h, pH 6, Candida albicans, pH 6.0, 22° C., 14 days, read-out: MIC C.alb
Experimental: as §1, §2, §3, §4, §5, §6, §7, §8

[4] = tested on: Candida tropicalis; conditions: 336 h, pH 6, Candida tropicalis, pH 6.0, 22° C., 14 days, read-out: MIC C.trop
Experimental: as §1, §2, §3, §4, §5, §6, §7, §8

[5] = tested on: Epidermophyton floccosum; conditions: pH 6.0, 22° C., 14 days; for MIC: 336 h, pH 6, Epidermophyton floccosum
Experimental: as §1, §2, §3, §4, §5, §6, §7, §8

[6] = tested on: Microsporum canis; conditions: 336 h, pH 6, Microsporum canis, pH 6.0, 22° C., 14 days
Experimental: as §1, §2, §3, §4, §5, §6, §7, §8

[7] = tested on: Microsporum gypseum; conditions: Nannizzia gypsea, 336 h, pH 6, Microsporum gypseum; pH 6.0, 22° C., 14 days; read-out: MIC Mi.gyp
Experimental: as §1, §2, §3, §4, §5, §6, §7, §8

[8] = tested on: Mucor mucedo minus; conditions: pH 6.0, 22° C., 14 days; for MIC: Mucor mucedo, 336 h, pH 6, Mucor mucedo minus
Experimental: as §1, §2, §3, §4, §5, §6, §7, §8

[9] = tested on: Mucor mucedo plus; conditions: pH 6.0, 22° C., 14 days; for MIC: Mucor mucedo, 336 h, pH 6, Mucor mucedo plus
Experimental: as §1, §2, §3, §4, §5, §6, §7, §8

[10] = tested on: Trichophyton mentagrophytes; conditions: pH 6.0, 22° C., 14 days; for MIC: 336 h, pH 6, Trichophyton mentagrophytes
Experimental: as §1, §2, §3, §4, §5, §6, §7, §8

[11] = tested on: Trichophyton rubrum; conditions: pH 6.0, 22° C., 14 days; for MIC: 336 h, pH 6, Trichophyton rubrum
Experimental: as §1, §2, §3, §4, §5, §6, §7, §8

[12] = tested on: Trichophyton verrucosum; conditions: pH 6.0, 22° C., 14 days; for MIC: 336 h, pH 6, Trichophyton verrucosum
Experimental: as §1, §2, §3, §4, §5, §6, §7, §8

With Clc1ccc(C(Cn2ccnc2)NCCCSc2ccc(Br)cc2)c(Cl)c1 (stereo not drawn) [Compound 105] the “MIC Abs.ra.” value ([1]; Absidia ramosa) was 12,5 μg/ml, the “MIC Asp.fu.” value [2] was 0,39 μg/ml and the MIC [3] was 3.12 µg/mL (≈ 6.43 µM). The MIC [4] was 3.12 µg/mL (≈ 6.43 µM), the “MIC Ep.flo” value [5] was 0,10 μg/ml and the MIC [6] was 0.78 µg/mL (≈ 1.61 µM). The MIC [7] was 0.39 µg/mL (≈ 0.804 µM), the “MIC Mu.mu-” value ([8]; Mucor mucedo minus) was 3,12 μg/ml and the “MIC Mu.mu+” value ([9]; Mucor mucedo plus) was 3,12 μg/ml. For the same compound, the “MIC Tri.me.” value [10] was 0,10 μg/ml, the “MIC Tri.ru.” value [11] was 0,10 μg/ml and the “MIC Tri.ve.” value [12] was 0,10 μg/ml.

In the case of Clc1ccc(OCCNC(Cn2cncn2)c2ccc(Cl)cc2Cl)cc1 (stereo not drawn) [Compound 14], the MIC [1] is reported as 100 µg/mL (≈ 243 µM), the “MIC Asp.fu.” value [2] is reported as 100 µg/mL (≈ 243 µM) and the MIC [3] is reported as 12.5 µg/mL (≈ 30.4 µM). The MIC [4] was 12.5 µg/mL (≈ 30.4 µM), the MIC [5] was 3.12 µg/mL (≈ 7.58 µM) and the MIC [6] was 12.5 µg/mL (≈ 30.4 µM). For the same compound, the MIC [7] was 6.25 µg/mL (≈ 15.2 µM), the MIC [8] was 6.25 µg/mL (≈ 15.2 µM) and the MIC [9] was 12.5 µg/mL. The MIC [10] was 12.5 µg/mL (≈ 30.4 µM), the MIC [11] was 6.25 µg/mL (≈ 15.2 µM) and the MIC [12] was 12.5 µg/mL (≈ 30.4 µM).

For CN(CCCOc1ccc(Cl)cc1)C(Cn1ccnc1)c1ccc(Cl)cc1Cl (stereo not drawn) [Compound 60], the MIC [1] was 6.25 µg/mL (≈ 14.2 µM), the “MIC Asp.fu.” value [2] was 6,25 μg/ml and the MIC [3] was 3.12 µg/mL (≈ 7.11 µM). The MIC [4] was 1.56 µg/mL (≈ 3.56 µM), the MIC [5] was 3.12 µg/mL (≈ 7.11 µM) and the MIC [6] was 1.56 µg/mL (≈ 3.56 µM). For the same compound, the MIC [7] was 3.12 µg/mL (≈ 7.11 µM), the MIC [8] was 1.56 µg/mL (≈ 3.56 µM) and the MIC [9] was 3.12 µg/mL. For the same compound, the MIC [10] was 6.25 µg/mL (≈ 14.2 µM), the MIC [11] was 0.78 µg/mL (≈ 1.78 µM) and the MIC [12] was 1.56 µg/mL (≈ 3.56 µM).

In the case of Clc1ccc(SCCCNC(Cn2cncn2)c2ccc(Cl)cc2Cl)cc1 (stereo not drawn) [Compound 95], the MIC [1] is reported as 100 µg/mL (≈ 226 µM), the “MIC Asp.fu.” value [2] is reported as 12,5 μg/ml and the MIC [3] is reported as 12.5 µg/mL (≈ 28.3 µM). For the same compound, the MIC [4] was 12.5 µg/mL (≈ 28.3 µM), the MIC [5] was 0.78 µg/mL (≈ 1.77 µM) and the MIC [6] was 6.25 µg/mL (≈ 14.1 µM). The MIC [7] was 3.12 µg/mL (≈ 7.06 µM), the MIC [8] was 3.12 µg/mL (≈ 7.06 µM) and the MIC [9] was 3.12 µg/mL. For the same compound, the MIC [10] was 3.12 µg/mL (≈ 7.06 µM), the MIC [11] was 1.56 µg/mL (≈ 3.53 µM) and the MIC [12] was 3.12 µg/mL (≈ 7.06 µM).

With Clc1ccc(C(Cn2cncn2)NCCCOc2c(Cl)cccc2Cl)c(Cl)c1 (stereo not drawn) [Compound 72] the MIC [1] was 100 µg/mL (≈ 217 µM), the “MIC Asp.fu.” value [2] was 3,12 μg/ml and the MIC [3] was 3.12 µg/mL (≈ 6.78 µM). It also gave an MIC [4] of 3.12 µg/mL (≈ 6.78 µM), an MIC [5] of 6.25 µg/mL (≈ 13.6 µM) and an MIC [6] of 25 µg/mL (≈ 54.3 µM). The MIC [7] was 6.25 µg/mL (≈ 13.6 µM), the MIC [8] was 6.25 µg/mL (≈ 13.6 µM) and the MIC [9] was 6.25 µg/mL. For the same compound, the MIC [10] was 25 µg/mL (≈ 54.3 µM), the MIC [11] was 3.12 µg/mL (≈ 6.78 µM) and the MIC [12] was 1.56 µg/mL (≈ 3.39 µM).

For Clc1ccc(SCCCNC(Cn2cncn2)c2ccc(Cl)cc2)cc1 (stereo not drawn) [Compound 99], the MIC [1] was 100 µg/mL (≈ 245 µM), the “MIC Asp.fu.” value [2] was 100 µg/mL (≈ 245 µM) and the MIC [3] was 6.25 µg/mL (≈ 15.3 µM). It also gave an MIC [4] of 12.5 µg/mL (≈ 30.7 µM), an MIC [5] of 6.25 µg/mL (≈ 15.3 µM) and an MIC [6] of 12.5 µg/mL (≈ 30.7 µM). It also gave an MIC [7] of 3.12 µg/mL (≈ 7.66 µM), an MIC [8] of 6.25 µg/mL (≈ 15.3 µM) and an MIC [9] of 12.5 µg/mL. It also gave an MIC [10] of 6.25 µg/mL (≈ 15.3 µM), an MIC [11] of 3.12 µg/mL (≈ 7.66 µM) and an MIC [12] of 3.12 µg/mL (≈ 7.66 µM).

In the case of Clc1ccc(SCCCNC(Cn2ccnc2)c2ccc(Cl)cc2Cl)cc1 (stereo not drawn) [Compound 2, 1-(2-(2,4-dichlorophenyl)-2-(3-(4-chlorophenylthio)propylamino)ethyl)-1H-imidazole], the MIC [1] is reported as 3.12 µg/mL (≈ 7.08 µM), the “MIC Asp.fu.” value [2] is reported as 3,12 μg/ml and the MIC [3] is reported as 3.12 µg/mL (≈ 7.08 µM). The MIC [4] was 1.56 µg/mL (≈ 3.54 µM), the MIC [5] was 6.25 µg/mL (≈ 14.2 µM) and the MIC [6] was 1.56 µg/mL (≈ 3.54 µM). It also gave an MIC [7] of 3.12 µg/mL (≈ 7.08 µM), an MIC [8] of 25 µg/mL (≈ 56.7 µM) and an MIC [9] of 12.5 µg/mL. The MIC [10] was 12.5 µg/mL (≈ 28.4 µM), the MIC [11] was 0.19 µg/mL (≈ 0.431 µM) and the MIC [12] was 0.39 µg/mL (≈ 0.885 µM).
